Data from patent US20230119894A1, “THERAPEUTIC OR PROPHYLACTIC METHOD FOR DIABETES USING COMBINATION MEDICINE” (Japan Tobacco Inc., priority 2019, published 2023).

What was measured:
glucose-loaded SD rats [1] = assay: OGTT (Oral Glucose Tolerance Test), Test Example 2; format: in vivo, rat; conditions: male SD rats; 1, 3, or 10 mg/kg oral, 16 hours before glucose load; compared to vehicle, FIG. 1
Protocol: Vehicle (0.5% methylcellulose solution) or Compound 1 (1, 3, or 10 mg/kg) suspended in a 0.5% methylcellulose solution was orally administered in 5 mL/kg to an about 4-hour-fasted male SD rat (8-week old, Nihon Charles River K.K., 6 cases for each group).
Statistical analyses were based on Steel's multiple test. The significance level was two-sided 5%.

glucose-loaded SD rats [2] = assay: OGTT (Oral Glucose Tolerance Test), Test Example 3; format: in vivo, rat; conditions: male SD rats; 3 mg/kg oral, 16 hours before glucose load; compared to vehicle, FIG. 2
Protocol: Vehicle (0.5% methylcellulose solution), or Compound 1, Compound A, or Compound B (3 mg/kg each) suspended in a 0.5% methylcellulose solution was orally administered in 5 mL/kg to an about 4-hour-fasted male SD rat (8-week old, Nihon Charles River K.K., 5 cases for each group).
Statistical analyses were based on Dunnett's multiple group test. The significance level was two-sided 5%.

How did the “blood glucose level after the glucose load (Δ AUC 0-120 minutes, % of Vehicle)” value (glucose-loaded SD rats [1]) turn out when `C[C@H]1C(=O)NC[C@@H]1C(=O)Nc1cc(-c2cc(F)cc(OC(C)(C)C)c2)n(C(F)(F)F)n1` [Example 1, (3R,4R)—N-(5-(3-(tert-butoxy)-5-fluorophenyl)-1-(trifluoromethyl)-1H-pyrazol-3-yl)-4-methyl-5-oxopyrrolidine-3-carboxamide] was run?
The value was “significantly reduced”.

And the “blood glucose level after the glucose load (Δ AUC 0-120 minutes, % of Vehicle)” value (glucose-loaded SD rats [2])?
The value was “significantly reduced”.
